# Laboratory results as given in PubChem BioAssay (NCI).
#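 Test compounds were applied to cells in 96-well plates for 48 hours at 5 doses. GI50: concentration for 50% inhibition of growth. At the TGI there is no net growth.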
# Assays:
# Experiment in all cases: DTP human tumour cell line panel, 48 h
# [1] = test system: MDA-MB-435
# [2] = test system: SW-620 colon
# [3] = test system: CAKI-1 renal
# [4] = test system: MOLT-4 leukemia
# [5] = test system: SR leukemia
# [6] = test system: HS 578T breast
# [7] = test system: HT29 colon
# [8] = test system: RPMI-8226 leukemia
# [9] = test system: A498 renal
# [10] = test system: SK-OV-3 ovarian
# [11] = test system: M14 melanoma
# [12] = test system: UACC-62 melanoma
# [13] = test system: BT-549 breast
# [14] = test system: SK-MEL-2 melanoma
# [15] = test system: SK-MEL-5 melanoma
# [16] = test system: EKVX NSCLC
# [17] = test system: LOX IMVI melanoma
# [18] = test system: NCI-H522 lung
# [19] = test system: DU-145 prostate
# [20] = test system: OVCAR-3 ovarian
# [21] = test system: MDA-MB-231 breast
# [22] = test system: OVCAR-4 ovarian
# [23] = test system: SF-539 CNS
# [24] = test system: HOP-62 NSCLC
# [25] = test system: SF-268 CNS
# [26] = test system: NCI-H23 lung
# [27] = test system: T-47D breast
# [28] = test system: HCT-15 colon
# [29] = test system: HCC-2998 colon
# [30] = test system: SNB-75 CNS
# [31] = test system: NCI/ADR-RES ovarian
# [32] = test system: OVCAR-5 ovarian
# [33] = test system: COLO 205 colon
# [34] = test system: NCI-H460 lung
# [35] = test system: HL-60(TB) leukemia
# [36] = test system: HOP-92 NSCLC
# [37] = test system: K-562 leukemia
# [38] = test system: RXF 393 renal
# [39] = test system: TK-10 renal
# [40] = test system: PC-3 prostate
# [41] = test system: MALME-3M melanoma
# [42] = test system: SK-MEL-28 melanoma
# [43] = test system: OVCAR-8 ovarian
# [44] = test system: HCT-116 colon
# [45] = test system: SNB-19 CNS
# [46] = test system: ACHN renal
# [47] = test system: A549 NSCLC
# [48] = test system: SN12C renal
# [49] = test system: IGROV1 ovarian
# [50] = test system: KM12 colon
# [51] = test system: U251 CNS
# [52] = test system: UACC-257 melanoma
# [53] = test system: NCI-H226 lung
# [54] = test system: SF-295 CNS
# [55] = test system: 786-0 renal
# [56] = test system: UO-31 renal
# [57] = test system: CCRF-CEM leukemia
smiles,measurement,setting,value
O=C(Nc1ccc(Cl)cc1)Nc1ccc(Oc2nncc3ccccc23)cc1,GI50,[1],290 nM
same,TGI,[1],1070 nM
same,GI50,[2],348 nM
same,TGI,[2],1600 nM
same,GI50,[3],2720 nM
same,TGI,[3],8700 nM
same,GI50,[4],376 nM
same,TGI,[4],> 100000 nM
same,GI50,[5],401 nM
same,TGI,[5],> 100000 nM
same,GI50,[6],696 nM
same,TGI,[6],47000 nM
same,GI50,[7],465 nM
same,TGI,[7],2390 nM
same,GI50,[8],488 nM
same,TGI,[8],4580 nM
same,GI50,[9],1500 nM
same,TGI,[9],3060 nM
same,GI50,[10],1740 nM
same,TGI,[10],5480 nM
same,GI50,[11],1120 nM
same,TGI,[11],3160 nM
same,GI50,[12],1080 nM
same,TGI,[12],3460 nM
same,GI50,[13],2080 nM
same,TGI,[13],7430 nM
same,GI50,[14],1570 nM
same,TGI,[14],3650 nM
same,GI50,[15],1200 nM
same,TGI,[15],2810 nM
same,GI50,[16],1610 nM
same,TGI,[16],4500 nM
same,GI50,[17],166 nM
same,TGI,[17],455 nM
same,GI50,[18],193 nM
same,TGI,[18],419 nM
same,GI50,[19],736 nM
same,TGI,[19],2080 nM
same,GI50,[20],354 nM
same,TGI,[20],1150 nM
same,GI50,[21],399 nM
same,TGI,[21],3680 nM
same,GI50,[22],753 nM
same,TGI,[22],3490 nM
same,GI50,[23],280 nM
same,TGI,[23],1130 nM
same,GI50,[24],1090 nM
same,TGI,[24],4320 nM
same,GI50,[25],1350 nM
same,TGI,[25],7210 nM
same,GI50,[26],751 nM
same,TGI,[26],2870 nM
same,GI50,[27],245 nM
same,TGI,[27],768 nM
same,GI50,[28],961 nM
same,TGI,[28],3080 nM
same,GI50,[29],1840 nM
same,TGI,[29],3480 nM
same,GI50,[30],451 nM
same,TGI,[30],1950 nM
same,GI50,[31],2630 nM
same,TGI,[31],> 100000 nM
same,GI50,[32],1890 nM
same,TGI,[32],4470 nM
same,GI50,[33],1180 nM
same,TGI,[33],2920 nM
same,GI50,[34],2790 nM
same,TGI,[34],8320 nM
same,GI50,[35],1080 nM
same,TGI,[35],13400 nM
same,GI50,[36],1640 nM
same,TGI,[36],4380 nM
same,GI50,[37],376 nM
same,TGI,[37],10900 nM
same,GI50,[38],312 nM
same,TGI,[38],1050 nM
same,GI50,[39],2120 nM
same,TGI,[39],4280 nM
same,GI50,[40],1640 nM
same,TGI,[40],6080 nM
same,GI50,[41],448 nM
same,TGI,[41],2310 nM
same,GI50,[42],422 nM
same,TGI,[42],1650 nM
same,GI50,[43],1100 nM
same,TGI,[43],13600 nM
same,GI50,[44],326 nM
same,TGI,[44],1200 nM
same,GI50,[45],1740 nM
same,TGI,[45],4790 nM
same,GI50,[46],1050 nM
same,TGI,[46],2330 nM
same,GI50,[47],2810 nM
same,TGI,[47],11500 nM
same,GI50,[48],1030 nM
same,TGI,[48],3580 nM
same,GI50,[49],1160 nM
same,TGI,[49],5000 nM
same,GI50,[50],888 nM
same,TGI,[50],2650 nM
same,GI50,[51],1010 nM
same,TGI,[51],2380 nM
same,GI50,[52],1500 nM
same,TGI,[52],4040 nM
same,GI50,[53],623 nM
same,TGI,[53],5420 nM
same,GI50,[54],2540 nM
same,TGI,[54],6270 nM
N#Cc1ccc(Oc2nc3ccccc3nc2C(=O)O)cc1,TGI,[1],> 100000 nM
same,TGI,[2],> 100000 nM
same,TGI,[3],> 100000 nM
same,TGI,[4],> 100000 nM
same,TGI,[5],> 100000 nM
same,TGI,[6],> 100000 nM
same,TGI,[7],> 100000 nM
same,TGI,[8],> 100000 nM
same,TGI,[9],> 100000 nM
same,TGI,[10],> 100000 nM
same,TGI,[11],> 100000 nM
same,TGI,[12],> 100000 nM
same,TGI,[13],> 100000 nM
same,TGI,[14],> 100000 nM
same,TGI,[15],> 100000 nM
same,TGI,[16],> 100000 nM
same,TGI,[17],> 100000 nM
same,TGI,[18],> 100000 nM
same,TGI,[19],> 100000 nM
same,TGI,[20],> 100000 nM
same,TGI,[21],> 100000 nM
same,TGI,[55],> 100000 nM
same,TGI,[22],> 100000 nM
same,TGI,[24],> 100000 nM
same,TGI,[25],> 100000 nM
same,TGI,[26],> 100000 nM
same,TGI,[27],> 100000 nM
same,TGI,[28],> 100000 nM
same,TGI,[29],> 100000 nM
same,TGI,[30],> 100000 nM
same,TGI,[31],> 100000 nM
same,TGI,[32],> 100000 nM
same,TGI,[33],> 100000 nM
same,TGI,[34],> 100000 nM
same,TGI,[35],> 100000 nM
same,TGI,[36],> 100000 nM
same,TGI,[37],> 100000 nM
same,TGI,[38],> 100000 nM
same,TGI,[39],> 100000 nM
same,TGI,[56],> 100000 nM
same,TGI,[40],> 100000 nM
same,TGI,[41],> 100000 nM
same,TGI,[42],> 100000 nM
same,TGI,[43],> 100000 nM
same,TGI,[57],> 100000 nM
same,TGI,[44],> 100000 nM
same,TGI,[45],> 100000 nM
same,TGI,[46],> 100000 nM
same,TGI,[47],> 100000 nM
same,TGI,[49],> 100000 nM
same,TGI,[50],> 100000 nM
same,TGI,[51],> 100000 nM
same,TGI,[52],> 100000 nM
same,TGI,[53],> 100000 nM
same,TGI,[54],> 100000 nM
